Results published in patent US8906925B2, “Pyrido[4,3-B]indoles containing rigid moieties” (Medivation Technologies, Inc., priority 2008, dated 2014).
Read-outs that look alike come from different tables or passages of the source.

Tests used:
histamine receptor H1 = histamine receptor H1 (Homo sapiens, UniProt P35367); assay: Histamine H1 radioligand binding ([3H]Pyrilamine); conditions: for inhibition at 1 µM: read-out: Histamine Binding (1 μM) H1, percent inhibition of specific binding, 1 μM
Procedure, shortened: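 Values are percent inhibition of specific [3H]pyrilamine (1.2 nM) binding with compounds at ≤1 μM (1% DMSO vehicle); 180 min incubation at 25 °C, pH 7.4 Tris buffer, on CHO-expressed human H1 receptor; 1 μM pyrilamine defined nonspecific binding, bound ligand counted after filtration.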

[1] = target: T1, human recombinant histamine H2 receptor (Homo sapiens, UniProt P25021); assay: Histamine H2 radioligand binding ([125I]Aminopotentidine); conditions: read-out: Histamine Binding (1 μM) H2, percent inhibition of specific binding, 1 μM
T1 construct: expressed in transfected cells; host or cells: Chinese hamster ovary (CHO) K1 cells
Procedure, shortened: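 CHO-K1 cells expressing human recombinant H2 receptor, 50 mM phosphate buffer pH 7.4; compounds incubated with 0.1 nM [125I]aminopotentidine for 120 min at 25 °C. Nonspecific binding defined with 3 μM tiotidine; specifically bound radioligand counted after filtration and washing.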

[2] = target: T2, human recombinant adrenergic α2A receptor (Homo sapiens, UniProt P08913); assay: Adrenergic α2A radioligand binding ([3H]MK-912); conditions: compound at 1 μM
T2 construct: expressed in transfected cells; host or cells: insect Sf9 cells
T2 sequence (P08913 1-465): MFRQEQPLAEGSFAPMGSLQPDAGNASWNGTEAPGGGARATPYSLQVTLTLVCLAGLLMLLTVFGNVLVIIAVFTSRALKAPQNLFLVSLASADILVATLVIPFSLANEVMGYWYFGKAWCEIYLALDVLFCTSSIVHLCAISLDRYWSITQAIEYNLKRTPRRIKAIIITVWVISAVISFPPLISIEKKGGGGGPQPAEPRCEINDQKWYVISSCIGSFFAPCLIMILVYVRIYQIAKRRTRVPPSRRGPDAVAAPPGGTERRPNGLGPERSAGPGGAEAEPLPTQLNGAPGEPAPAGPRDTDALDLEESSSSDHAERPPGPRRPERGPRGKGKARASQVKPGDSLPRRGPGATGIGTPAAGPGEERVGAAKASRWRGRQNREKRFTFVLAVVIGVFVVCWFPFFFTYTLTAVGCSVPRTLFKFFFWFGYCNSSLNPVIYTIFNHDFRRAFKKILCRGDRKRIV
Procedure, shortened: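 Sf9-expressed human receptor in 50 mM Tris-HCl pH 7.4, 12.5 mM MgCl2, 2 mM EDTA; compounds at 1 μM or lower (1% DMSO) incubated with 1 nM [3H]MK-912 for 60 min at 25° C. Non-specific binding defined with 10 μM WB-4101; filtered bound radioactivity counted, reported as percent inhibition of specific binding.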

[3] = target: T3, human recombinant adrenergic α2B receptor (Homo sapiens, UniProt P18089); assay: Adrenergic α2B radioligand binding ([3H]Rauwolscine); conditions: compound at 1 μM
T3 construct: expressed in transfected cells; host or cells: Chinese hamster ovary (CHO-K1) cells
T3 sequence (P18089 1-450): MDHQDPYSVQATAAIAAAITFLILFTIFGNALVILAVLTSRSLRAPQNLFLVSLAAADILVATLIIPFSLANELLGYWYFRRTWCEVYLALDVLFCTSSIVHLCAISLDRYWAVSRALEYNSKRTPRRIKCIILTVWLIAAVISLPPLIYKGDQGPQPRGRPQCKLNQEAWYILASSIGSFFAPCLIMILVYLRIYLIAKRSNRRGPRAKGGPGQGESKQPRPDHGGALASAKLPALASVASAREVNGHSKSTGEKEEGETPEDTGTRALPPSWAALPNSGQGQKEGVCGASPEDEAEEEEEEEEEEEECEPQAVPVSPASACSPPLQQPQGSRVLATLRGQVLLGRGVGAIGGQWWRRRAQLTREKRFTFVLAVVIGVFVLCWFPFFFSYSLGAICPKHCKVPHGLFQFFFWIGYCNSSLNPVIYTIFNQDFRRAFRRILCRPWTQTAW
Procedure, shortened: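 Membranes from CHO-K1 cells expressing the receptor were incubated with 2.5 nM [3H]Rauwolscine for 60 min at 25 °C in Tris-HCl buffer pH 7.4 with MgCl2, EDTA and BSA. Non-specific binding was defined with 10 μM prazosin. Compounds were tested at ≤1 μM in 1% DMSO and read out as % inhibition of specific binding after filtration.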

[4] = target: T4, human recombinant serotonin (5-Hydroxytryptamine) 5-HT2A receptor (Homo sapiens, UniProt P28223); assay: Serotonin 5-HT2A radioligand binding ([3H]Ketanserin); conditions: for inhibition at 1 µM: read-out: Inhibition of ligand binding, Serotonin 5-HT2A (percent inhibition of specific binding), compound at 1 μM; for Inhibition of ligand binding, Serotonin 5-HT2A (percent inhibition of specific binding): compound at 1 μM, 1 µM
T4 construct: expressed in transfected cells; host or cells: Chinese hamster ovary (CHO-K1) cells
Experimental: Compounds of the invention were incubated with 0.5 nM [^3H]Ketanserin for 60 min. at 25° C. Non-specific binding was estimated in the presence of 1 μM Mianserin. Receptor proteins were filtered and washed, the filters were then counted to determine [^3H]Ketanserin specifically bound.

[5] = percent inhibition of specific binding, read-out: Inhibition of ligand binding, Adrenergic α2A
[6] = percent inhibition of specific binding, read-out: Inhibition of ligand binding, Adrenergic α2B
[7] = read-out: Inhibition of ligand binding, Adrenergic α2A (percent inhibition of specific binding)
[8] = […] [3H]Rauwolscine, read-out: Inhibition of ligand binding, Adrenergic α2B (percent inhibition of specific binding)

T1 sequence (P25021 whole entry): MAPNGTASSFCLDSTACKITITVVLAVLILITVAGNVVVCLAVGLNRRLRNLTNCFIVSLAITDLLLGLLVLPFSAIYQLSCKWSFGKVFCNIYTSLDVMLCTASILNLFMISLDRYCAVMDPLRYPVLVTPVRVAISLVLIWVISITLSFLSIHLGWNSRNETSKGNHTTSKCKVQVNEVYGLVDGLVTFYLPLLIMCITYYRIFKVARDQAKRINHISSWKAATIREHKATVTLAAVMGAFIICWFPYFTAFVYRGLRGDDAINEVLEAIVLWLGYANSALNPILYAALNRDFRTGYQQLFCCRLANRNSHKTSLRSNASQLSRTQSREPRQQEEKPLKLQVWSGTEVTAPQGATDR
T4 sequence (P28223 whole entry): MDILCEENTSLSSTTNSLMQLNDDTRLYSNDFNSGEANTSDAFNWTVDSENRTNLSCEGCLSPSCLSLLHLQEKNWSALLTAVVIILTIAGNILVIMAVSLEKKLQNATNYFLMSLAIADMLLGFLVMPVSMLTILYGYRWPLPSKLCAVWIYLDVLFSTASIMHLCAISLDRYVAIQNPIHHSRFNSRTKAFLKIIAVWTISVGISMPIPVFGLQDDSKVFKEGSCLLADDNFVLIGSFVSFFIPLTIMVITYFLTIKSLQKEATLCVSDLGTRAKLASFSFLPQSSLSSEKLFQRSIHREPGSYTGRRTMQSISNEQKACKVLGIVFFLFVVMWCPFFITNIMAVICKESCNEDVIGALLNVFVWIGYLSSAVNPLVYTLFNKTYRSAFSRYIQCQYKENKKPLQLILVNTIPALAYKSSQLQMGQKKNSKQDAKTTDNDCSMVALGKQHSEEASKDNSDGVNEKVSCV
histamine receptor H1, sequence (P35367 whole entry): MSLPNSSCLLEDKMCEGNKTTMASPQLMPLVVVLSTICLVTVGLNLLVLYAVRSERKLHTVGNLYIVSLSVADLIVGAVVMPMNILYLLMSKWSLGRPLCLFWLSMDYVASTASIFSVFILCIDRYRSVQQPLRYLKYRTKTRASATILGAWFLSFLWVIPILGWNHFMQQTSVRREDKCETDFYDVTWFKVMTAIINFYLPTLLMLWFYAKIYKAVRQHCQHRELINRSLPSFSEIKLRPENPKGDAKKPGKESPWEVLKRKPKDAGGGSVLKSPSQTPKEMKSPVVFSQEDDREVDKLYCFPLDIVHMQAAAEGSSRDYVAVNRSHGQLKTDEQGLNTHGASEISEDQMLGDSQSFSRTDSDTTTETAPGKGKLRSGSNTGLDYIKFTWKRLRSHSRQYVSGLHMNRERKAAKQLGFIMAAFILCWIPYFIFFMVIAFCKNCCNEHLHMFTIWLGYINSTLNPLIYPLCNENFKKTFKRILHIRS

SMILES | inhibition at 1 µM (histamine receptor H1) | inhibition at 1 µM [1] | inhibition at 1 µM [2, 5] | inhibition at 1 µM [3, 6] | inhibition at 1 µM [4] | Histamine Binding (1 μM) H1, percent inhibition of specific binding (histamine receptor H1) | Inhibition of ligand binding, Serotonin 5-HT2A (percent inhibition of specific binding) [4] | inhibition at 1 µM [2, 7] | inhibition at 1 µM [3, 8]
Cc1ccc2c(c1)c1c(n2CC(O)(c2ccccc2)c2ccc(F)cc2)CCN(C)C1 (stereo not drawn) [Compound No. 176, 2-(2,8-dimethyl-3,4-dihydro-1H-pyrido[4,3-b]indol-5(2H)-yl)-1-(4-fluorophenyl)-1-phenylethanol] | 21% | 74% | 94% | 95% | 97% | – | – | – | –
CCOC(=O)/C=C(/Cn1c2c(c3cc(C)ccc31)CN(C)CC2)c1ccccc1 [Compound No. 347, (E)-ethyl 4-(2,8-dimethyl-3,4-dihydro-1H-pyrido[4,3-b]indol-5(2H)-yl)-3-phenylbut-2-enoate] | 42% | 87% | 96% | 111% | 100% | 56% | – | – | –
CN1CCc2c(c3cc(Cl)ccc3n2C/C(=C\CCO)c2ccc(F)cc2)C1 [Compound No. 348, (Z)-5-(8-chloro-2-methyl-3,4-dihydro-1H-pyrido[4,3-b]indol-5(2H)-yl)-4-(4-fluorophenyl)pent-3-en-1-ol] | 32% | 73% | 92% | 105% | 99% | 38% | 100% | – | –
CN1CCc2c(c3cc(Cl)ccc3n2C/C(=C/CCO)c2ccc(F)cc2)C1 [Compound No. 349, (E)-5-(8-chloro-2-methyl-3,4-dihydro-1H-pyrido[4,3-b]indol-5(2H)-yl)-4-(4-fluorophenyl)pent-3-en-1-ol] | 53% | 84% | 97% | 102% | 97% | 65% | 100% | – | –
CCOC(=O)/C=C(/Cn1c2c(c3cc(C)ccc31)CN(C)CC2)c1ccc(F)cc1 [Compound No. 350, (E)-ethyl 4-(2,8-dimethyl-3,4-dihydro-1H-pyrido[4,3-b]indol-5(2H)-yl)-3-(4-fluorophenyl)but-2-enoate] | 27% | 93% | – | – | 100% | 37% | – | 95% | 107%
CCC/C=C(/Cn1c2c(c3cc(Cl)ccc31)CN(C)CC2)c1ccc(F)cc1 [Compound No. 351, (E)-8-chloro-5-(2-(4-fluorophenyl)hex-2-enyl)-2-methyl-2,3,4,5-tetrahydro-1H-pyrido[4,3-b]indole] | 78% | 100% | – | – | 100% | 80% | – | 84% | 99%
Cc1ccc2c(c1)c1c(n2C/C(=C/C(=O)O)c2ccc(F)cc2)CCN(C)C1 [Compound No. 352, (E)-4-(2,8-dimethyl-3,4-dihydro-1H-pyrido[4,3-b]indol-5(2H)-yl)-3-(4-fluorophenyl)but-2-enoic acid] | 4% | 15% | – | – | 84% | – | – | 34% | 47%
CN1CCc2c(c3cc(Cl)ccc3n2C#Cc2ccc(F)cc2)C1 [Compound No. 475, 8-chloro-5-((4-fluorophenyl)ethynyl)-2-methyl-2,3,4,5-tetrahydro-1H-pyrido[4,3-b]indole] | 34% | 91% | – | – | 99% | – | – | 93% | 106%
Cc1ccc2c(c1)c1c(n2C#Cc2ccc(C)nc2)CCN(C)C1 [Compound No. 476, 2,8-dimethyl-5-((6-methylpyridin-3-yl)ethynyl)-2,3,4,5-tetrahydro-1H-pyrido[4,3-b]indole] | 27% | 88% | – | – | 100% | – | – | 96% | 87%
COc1ccc(C#Cn2c3c(c4cc(Cl)ccc42)CN(C)CC3)cc1F [Compound No. 477, 8-chloro-5-((3-fluoro-4-methoxyphenyl)ethynyl)-2-methyl-2,3,4,5-tetrahydro-1H-pyrido[4,3-b]indole] | 17% | 97% | – | – | 95% | – | – | 97% | 107%
Cc1ccc2c(c1)c1c(n2C#Cc2ccc(F)cc2)CCN(C)C1 [Compound No. 478, 5-((4-fluorophenyl)ethynyl)-2,8-dimethyl-2,3,4,5-tetrahydro-1H-pyrido[4,3-b]indole] | 28% | 94% | – | – | 99% | – | – | 96% | 106%
COC(=O)c1ccc2c(c1)c1c(n2C#Cc2ccc(F)cc2)CCN(C)C1 [Compound No. 479, methyl 5-((4-fluorophenyl)ethynyl)-2-methyl-2,3,4,5-tetrahydro-1H-pyrido[4,3-b]indole-8-carboxylate] | 11% | 51% | – | – | 78% | – | – | 83% | 37%
CN1CCc2c(c3cc(Cl)ccc3n2C#Cc2ccc(Cl)cc2)C1 [Compound No. 480, 8-chloro-5-((4-chlorophenyl)ethynyl)-2-methyl-2,3,4,5-tetrahydro-1H-pyrido[4,3-b]indole] | 40% | 93% | – | – | 98% | – | – | 94% | 100%
Cc1ccc2c(c1)c1c(n2C#Cc2ccc(Cl)cc2)CCN(C)C1 [Compound No. 481, 5-((4-chlorophenyl)ethynyl)-2,8-dimethyl-2,3,4,5-tetrahydro-1H-pyrido[4,3-b]indole] | 12% | 97% | – | – | 101% | – | – | 99% | 98%
CN1CCc2c(c3cc(C(=O)O)ccc3n2C#Cc2ccc(F)cc2)C1 [Compound No. 482, 5-((4-fluorophenyl)ethynyl)-2-methyl-2,3,4,5-tetrahydro-1H-pyrido[4,3-b]indole-8-carboxylic acid] | 13% | -3% | – | – | -8% | – | – | 8% | 6%
CNC(=O)c1ccc2c(c1)c1c(n2C#Cc2ccc(F)cc2)CCN(C)C1 [Compound No. 483, 5-((4-fluorophenyl)ethynyl)-N,2-dimethyl-2,3,4,5-tetrahydro-1H-pyrido[4,3-b]indole-8-carboxamide] | -1% | 10% | – | – | 34% | – | – | 77% | 14%
